# Laboratory results as given in PMC8800111 (The Journal of Biological Chemistry, 2021).
# How the values were obtained:
# Assay type in all cases: cell-based
# [1] = target: proteins of U3A human fibrosarcoma cells (4462 proteins detected) (Homo sapiens, UniProt Q9H6E4); conditions: protein CCDC134; U3A, 10 μM, 2 h
# [2] = target: proteins of U3A human fibrosarcoma cells (4462 proteins detected) (Homo sapiens, UniProt Q96DM3); conditions: protein C18orf8; U3A cells
# [3] = target: proteins of U3A human fibrosarcoma cells (4462 proteins detected) (Homo sapiens, UniProt Q13620); conditions: protein CUL4B; U3A cells
# proteins of U3A human fibrosarcoma cells (4462 proteins detected) (Homo sapiens, UniProt Q13620), sequence (Q13620 whole entry): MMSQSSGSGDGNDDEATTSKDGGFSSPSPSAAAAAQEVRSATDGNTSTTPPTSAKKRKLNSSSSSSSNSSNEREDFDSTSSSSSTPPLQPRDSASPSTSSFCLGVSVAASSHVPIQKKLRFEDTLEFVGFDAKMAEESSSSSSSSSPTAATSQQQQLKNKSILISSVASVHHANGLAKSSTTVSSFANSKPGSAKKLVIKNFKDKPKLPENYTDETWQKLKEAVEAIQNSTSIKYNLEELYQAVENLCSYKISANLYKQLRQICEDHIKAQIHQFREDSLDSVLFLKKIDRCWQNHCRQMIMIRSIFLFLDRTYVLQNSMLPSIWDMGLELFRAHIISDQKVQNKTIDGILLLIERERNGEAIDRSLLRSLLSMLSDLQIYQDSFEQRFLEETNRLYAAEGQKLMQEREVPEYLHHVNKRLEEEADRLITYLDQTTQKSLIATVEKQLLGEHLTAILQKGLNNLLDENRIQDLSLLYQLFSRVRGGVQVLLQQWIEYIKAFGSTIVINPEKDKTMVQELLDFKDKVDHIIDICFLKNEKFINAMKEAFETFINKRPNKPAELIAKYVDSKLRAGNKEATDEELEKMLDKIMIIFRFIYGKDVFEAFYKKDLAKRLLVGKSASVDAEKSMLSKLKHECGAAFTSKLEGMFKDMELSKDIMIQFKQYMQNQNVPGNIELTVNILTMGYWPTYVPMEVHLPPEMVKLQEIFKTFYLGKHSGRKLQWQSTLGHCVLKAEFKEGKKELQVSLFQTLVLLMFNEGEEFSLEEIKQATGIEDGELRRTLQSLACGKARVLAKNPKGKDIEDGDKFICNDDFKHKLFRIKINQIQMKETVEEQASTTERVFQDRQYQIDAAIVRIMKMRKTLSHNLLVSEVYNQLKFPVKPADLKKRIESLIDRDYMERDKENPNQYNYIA
# [4] = target: proteins of U3A human fibrosarcoma cells (4462 proteins detected) (Homo sapiens, UniProt Q9UN37); conditions: protein VPS4A; U3A cells
# [5] = target: proteins of U3A human fibrosarcoma cells (4462 proteins detected) (Homo sapiens, UniProt Q9H4A6); conditions: protein GOLPH3; U3A cells
# proteins of U3A human fibrosarcoma cells (4462 proteins detected) (Homo sapiens, UniProt Q9H4A6), sequence (Q9H4A6 whole entry): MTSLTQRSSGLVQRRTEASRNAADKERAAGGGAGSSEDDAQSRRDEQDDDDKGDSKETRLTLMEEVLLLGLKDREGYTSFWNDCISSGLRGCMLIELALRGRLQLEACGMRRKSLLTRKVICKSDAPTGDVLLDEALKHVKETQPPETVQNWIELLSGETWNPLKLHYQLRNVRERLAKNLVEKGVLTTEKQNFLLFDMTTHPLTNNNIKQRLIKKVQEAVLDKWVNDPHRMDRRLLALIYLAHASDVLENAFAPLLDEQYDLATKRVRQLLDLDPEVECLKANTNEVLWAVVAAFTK
# [6] = target: proteins of U3A human fibrosarcoma cells (4462 proteins detected) (Homo sapiens, UniProt Q9UL15); conditions: protein BAG5; U3A cells
# [7] = target: proteins of U3A human fibrosarcoma cells (4462 proteins detected) (Homo sapiens, UniProt P63173); conditions: protein RPL38; U3A cells
# [8] = target: proteins of U3A human fibrosarcoma cells (4462 proteins detected) (Homo sapiens, UniProt Q9Y6G5); conditions: protein COMMD10; U3A cells
# proteins of U3A human fibrosarcoma cells (4462 proteins detected) (Homo sapiens, UniProt Q9Y6G5), sequence (Q9Y6G5 whole entry): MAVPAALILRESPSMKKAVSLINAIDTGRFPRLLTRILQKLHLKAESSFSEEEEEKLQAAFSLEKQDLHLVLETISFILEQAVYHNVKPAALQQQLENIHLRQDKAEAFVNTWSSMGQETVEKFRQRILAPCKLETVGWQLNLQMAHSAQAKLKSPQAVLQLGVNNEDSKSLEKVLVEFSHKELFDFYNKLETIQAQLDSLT
# [9] = target: proteins of U3A human fibrosarcoma cells (4462 proteins detected) (Homo sapiens, UniProt O00232); conditions: protein PSMD12; U3A cells
# [10] = target: proteins of U3A human fibrosarcoma cells (4462 proteins detected) (Homo sapiens, UniProt Q8WXD5); conditions: protein GEMIN6, U3A cells
# [11] = target: proteins of U3A human fibrosarcoma cells (4462 proteins detected) (Homo sapiens, UniProt Q15366); conditions: protein PCBP2; U3A cells
# [12] = target: proteins of U3A human fibrosarcoma cells (4462 proteins detected) (Homo sapiens, UniProt Q7Z4W1); conditions: protein DCXR; soluble abundance after heat, U3A cells
# proteins of U3A human fibrosarcoma cells (4462 proteins detected) (Homo sapiens, UniProt Q7Z4W1), sequence (Q7Z4W1 whole entry): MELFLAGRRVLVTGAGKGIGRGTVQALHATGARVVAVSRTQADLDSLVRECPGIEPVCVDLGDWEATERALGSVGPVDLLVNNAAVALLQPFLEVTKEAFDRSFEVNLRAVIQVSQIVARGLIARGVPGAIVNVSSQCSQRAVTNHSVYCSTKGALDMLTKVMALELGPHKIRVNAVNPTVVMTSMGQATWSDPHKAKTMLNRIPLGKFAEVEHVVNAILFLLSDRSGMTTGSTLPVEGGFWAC
# [13] = target: proteins of U3A human fibrosarcoma cells (4462 proteins detected) (Homo sapiens, UniProt Q12805); conditions: protein EFEMP1; U3A cells
# [14] = target: proteins of U3A human fibrosarcoma cells (4462 proteins detected) (Homo sapiens, UniProt Q27J81); conditions: protein INF2, U3A cells
# [15] = target: proteins of U3A human fibrosarcoma cells (4462 proteins detected) (Homo sapiens, UniProt Q99459); conditions: protein CDC5L; U3A cells
# [16] = target: proteins of U3A human fibrosarcoma cells (4462 proteins detected) (Homo sapiens, UniProt Q14651); conditions: protein PLS1; U3A cells
# [17] = target: proteins of U3A human fibrosarcoma cells (4462 proteins detected) (Homo sapiens, UniProt Q9BWU0); conditions: protein SLC4A1AP, U3A cells
# proteins of U3A human fibrosarcoma cells (4462 proteins detected) (Homo sapiens, UniProt Q9BWU0), sequence (Q9BWU0 whole entry): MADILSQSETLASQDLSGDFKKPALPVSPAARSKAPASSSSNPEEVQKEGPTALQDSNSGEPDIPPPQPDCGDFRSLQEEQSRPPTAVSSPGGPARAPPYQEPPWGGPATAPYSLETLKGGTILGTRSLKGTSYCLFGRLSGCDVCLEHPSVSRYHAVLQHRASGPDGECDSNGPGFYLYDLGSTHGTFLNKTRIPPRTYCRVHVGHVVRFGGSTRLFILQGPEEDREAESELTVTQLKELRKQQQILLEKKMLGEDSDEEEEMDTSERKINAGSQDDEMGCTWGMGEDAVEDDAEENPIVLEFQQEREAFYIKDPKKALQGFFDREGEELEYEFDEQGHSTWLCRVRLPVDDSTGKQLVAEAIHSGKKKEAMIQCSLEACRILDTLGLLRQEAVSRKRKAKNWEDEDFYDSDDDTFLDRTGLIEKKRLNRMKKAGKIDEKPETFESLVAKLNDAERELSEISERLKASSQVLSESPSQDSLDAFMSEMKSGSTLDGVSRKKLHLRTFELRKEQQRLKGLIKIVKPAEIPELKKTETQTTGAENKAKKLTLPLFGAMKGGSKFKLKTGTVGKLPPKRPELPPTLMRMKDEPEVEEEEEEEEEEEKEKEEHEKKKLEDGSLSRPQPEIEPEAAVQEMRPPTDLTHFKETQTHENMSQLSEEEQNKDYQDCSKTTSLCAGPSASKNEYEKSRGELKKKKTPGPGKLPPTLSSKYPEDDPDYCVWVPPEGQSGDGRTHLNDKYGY
# [18] = target: proteins of U3A human fibrosarcoma cells (4462 proteins detected) (Homo sapiens, UniProt P56282); conditions: protein POLE2; U3A cells
# proteins of U3A human fibrosarcoma cells (4462 proteins detected) (Homo sapiens, UniProt P56282), sequence (P56282 whole entry): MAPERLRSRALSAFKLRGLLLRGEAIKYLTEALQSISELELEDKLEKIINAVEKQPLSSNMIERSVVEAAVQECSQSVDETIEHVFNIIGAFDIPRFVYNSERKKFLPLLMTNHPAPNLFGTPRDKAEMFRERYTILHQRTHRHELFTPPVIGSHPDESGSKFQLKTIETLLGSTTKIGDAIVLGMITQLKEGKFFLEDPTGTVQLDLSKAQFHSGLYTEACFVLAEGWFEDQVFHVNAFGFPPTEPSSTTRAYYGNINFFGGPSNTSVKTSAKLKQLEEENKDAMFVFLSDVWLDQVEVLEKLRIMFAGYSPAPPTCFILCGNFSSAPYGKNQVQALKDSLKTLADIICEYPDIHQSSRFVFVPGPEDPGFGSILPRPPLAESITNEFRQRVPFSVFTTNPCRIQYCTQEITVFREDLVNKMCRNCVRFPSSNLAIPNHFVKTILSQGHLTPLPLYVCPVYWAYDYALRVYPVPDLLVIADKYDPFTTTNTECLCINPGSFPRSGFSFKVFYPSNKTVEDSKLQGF
# [19] = target: proteins of U3A human fibrosarcoma cells (4462 proteins detected) (Homo sapiens, UniProt Q8IWW6); conditions: protein ARHGAP12; soluble abundance after heat, U3A cells
# [20] = target: proteins of U3A human fibrosarcoma cells (4462 proteins detected) (Homo sapiens, UniProt Q9H7X7); conditions: protein IFT22; U3A, 10 μM, 2 h
# [21] = target: proteins of U3A human fibrosarcoma cells (4462 proteins detected) (Homo sapiens, UniProt Q9H871); conditions: protein RMND5A; U3A cells
# proteins of U3A human fibrosarcoma cells (4462 proteins detected) (Homo sapiens, UniProt Q9H871), sequence (Q9H871 whole entry): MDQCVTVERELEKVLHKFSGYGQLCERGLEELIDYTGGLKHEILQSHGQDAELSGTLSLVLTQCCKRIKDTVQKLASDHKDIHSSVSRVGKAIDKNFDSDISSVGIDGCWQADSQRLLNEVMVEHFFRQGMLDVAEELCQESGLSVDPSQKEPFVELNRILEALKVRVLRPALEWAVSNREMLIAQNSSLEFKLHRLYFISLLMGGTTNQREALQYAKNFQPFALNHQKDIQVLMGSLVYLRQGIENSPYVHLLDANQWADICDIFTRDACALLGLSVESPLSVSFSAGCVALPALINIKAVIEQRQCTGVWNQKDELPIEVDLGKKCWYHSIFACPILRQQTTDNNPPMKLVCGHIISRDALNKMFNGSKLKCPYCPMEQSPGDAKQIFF
# [22] = target: proteins of U3A human fibrosarcoma cells (4462 proteins detected) (Homo sapiens, UniProt Q9ULX3); conditions: protein NOB1; U3A cells
# proteins of U3A human fibrosarcoma cells (4462 proteins detected) (Homo sapiens, UniProt Q9ULX3), sequence (Q9ULX3 whole entry): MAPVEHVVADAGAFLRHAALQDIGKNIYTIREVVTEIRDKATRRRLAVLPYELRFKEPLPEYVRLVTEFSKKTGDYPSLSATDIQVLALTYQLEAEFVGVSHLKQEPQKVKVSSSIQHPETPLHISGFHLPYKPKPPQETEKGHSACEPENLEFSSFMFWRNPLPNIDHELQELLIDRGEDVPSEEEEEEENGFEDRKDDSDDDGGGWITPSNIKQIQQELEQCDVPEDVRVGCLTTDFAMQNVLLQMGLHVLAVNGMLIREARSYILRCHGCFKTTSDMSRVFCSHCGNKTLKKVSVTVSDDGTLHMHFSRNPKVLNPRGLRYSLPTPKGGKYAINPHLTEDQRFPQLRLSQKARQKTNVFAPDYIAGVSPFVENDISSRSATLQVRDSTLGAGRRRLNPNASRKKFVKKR
# [23] = target: proteins of U3A human fibrosarcoma cells (4462 proteins detected) (Homo sapiens, UniProt Q8TDP1); conditions: protein RNASEH2C, U3A cells
# proteins of U3A human fibrosarcoma cells (4462 proteins detected) (Homo sapiens, UniProt Q8TDP1), sequence (Q8TDP1 whole entry): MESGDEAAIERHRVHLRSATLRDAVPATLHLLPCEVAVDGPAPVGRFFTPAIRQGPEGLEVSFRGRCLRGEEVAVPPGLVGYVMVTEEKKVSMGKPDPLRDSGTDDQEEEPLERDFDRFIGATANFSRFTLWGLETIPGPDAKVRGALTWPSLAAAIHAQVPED
# [24] = target: proteins of U3A human fibrosarcoma cells (4462 proteins detected) (Homo sapiens, UniProt Q9NWT1); conditions: protein PAK1IP1; U3A cells
# proteins of U3A human fibrosarcoma cells (4462 proteins detected) (Homo sapiens, UniProt Q9NWT1), sequence (Q9NWT1 whole entry): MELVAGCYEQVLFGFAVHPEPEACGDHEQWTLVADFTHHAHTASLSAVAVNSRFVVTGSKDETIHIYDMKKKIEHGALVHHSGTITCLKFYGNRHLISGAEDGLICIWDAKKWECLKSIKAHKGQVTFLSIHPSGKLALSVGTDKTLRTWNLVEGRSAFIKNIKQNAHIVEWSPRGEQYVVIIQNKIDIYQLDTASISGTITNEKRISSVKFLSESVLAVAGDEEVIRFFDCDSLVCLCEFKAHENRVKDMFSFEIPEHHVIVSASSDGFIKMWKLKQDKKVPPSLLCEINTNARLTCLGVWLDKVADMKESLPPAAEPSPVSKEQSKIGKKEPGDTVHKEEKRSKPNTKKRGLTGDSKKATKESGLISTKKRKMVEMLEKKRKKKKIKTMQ
# [25] = target: proteins of U3A human fibrosarcoma cells (4462 proteins detected) (Homo sapiens, UniProt Q6YN16); conditions: protein HSDL2; U3A cells
# [26] = target: proteins of U3A human fibrosarcoma cells (4462 proteins detected) (Homo sapiens, UniProt P26440); conditions: protein IVD, U3A cells
# [27] = target: proteins of U3A human fibrosarcoma cells (4462 proteins detected) (Homo sapiens, UniProt Q96SB8); conditions: protein SMC6; U3A cells
# [28] = target: proteins of U3A human fibrosarcoma cells (4462 proteins detected) (Homo sapiens, UniProt Q6N063); conditions: protein OGFOD2; U3A cells
# [29] = target: proteins of U3A human fibrosarcoma cells (4462 proteins detected) (Homo sapiens, UniProt Q9UQ80); conditions: protein PA2G4, U3A cells
# [30] = target: proteins of U3A human fibrosarcoma cells (4462 proteins detected) (Homo sapiens, UniProt Q495W5); conditions: protein FUT11; U3A cells
# proteins of U3A human fibrosarcoma cells (4462 proteins detected) (Homo sapiens, UniProt Q96DM3), sequence (Q96DM3 whole entry): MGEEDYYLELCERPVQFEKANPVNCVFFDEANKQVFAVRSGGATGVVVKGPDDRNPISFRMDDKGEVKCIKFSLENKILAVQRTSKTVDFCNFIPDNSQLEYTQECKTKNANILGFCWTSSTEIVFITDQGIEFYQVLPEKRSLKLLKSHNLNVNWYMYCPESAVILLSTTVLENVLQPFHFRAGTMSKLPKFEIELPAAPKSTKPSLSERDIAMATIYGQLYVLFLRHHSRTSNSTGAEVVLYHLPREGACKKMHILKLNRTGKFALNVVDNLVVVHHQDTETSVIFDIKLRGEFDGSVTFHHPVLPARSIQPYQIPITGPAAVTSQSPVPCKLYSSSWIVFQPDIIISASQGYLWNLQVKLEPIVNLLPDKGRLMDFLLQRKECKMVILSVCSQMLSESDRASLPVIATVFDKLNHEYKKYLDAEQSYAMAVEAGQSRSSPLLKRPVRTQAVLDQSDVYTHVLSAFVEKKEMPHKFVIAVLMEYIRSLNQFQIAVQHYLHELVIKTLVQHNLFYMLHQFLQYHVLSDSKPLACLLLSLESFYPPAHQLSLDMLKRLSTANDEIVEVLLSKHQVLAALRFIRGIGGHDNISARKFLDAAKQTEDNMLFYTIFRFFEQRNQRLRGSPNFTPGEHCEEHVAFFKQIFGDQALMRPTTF
structure (smiles),measurement,setting,value
CCc1nc(N)nc(N)c1-c1ccc(Cl)cc1 [pyrimethamine],"Log2 (PYR/DMSO), CCDC134",[1],0.23
same,Log2 (PYR/DMSO),[2],0.17
same,Log2 (PYR/DMSO),[3],0.18
same,Log2 (PYR/DMSO),[4],0.19
same,Log2 (PYR/DMSO),[5],0.23
same,Log2 (PYR/DMSO),[6],0.16
same,Log2 (PYR/DMSO),[7],0.18
same,Log2 (PYR/DMSO),[8],0.22
same,Log2 (PYR/DMSO),[9],0.18
same,Log2 (PYR/DMSO),[10],-0.04
same,Log2 (PYR/DMSO),[11],0.18
same,Log2 (PYR/DMSO),[12],0.14
same,Log2 (PYR/DMSO),[13],0.18
same,Log2 (PYR/DMSO),[14],-0.04
same,Log2 (PYR/DMSO),[15],0.18
same,Log2 (PYR/DMSO),[16],0.17
same,Log2 (PYR/DMSO),[17],-0.04
same,Log2 (PYR/DMSO),[18],0.19
same,Log2 (PYR/DMSO),[19],0.13
same,"Log2 (PYR/DMSO), IFT22",[20],-0.16
same,Log2 (PYR/DMSO),[21],0.21
same,Log2 (PYR/DMSO),[22],0.15
same,Log2 (PYR/DMSO),[23],-0.03
same,Log2 (PYR/DMSO),[24],0.18
same,Log2 (PYR/DMSO),[25],0.22
same,Log2 (PYR/DMSO),[26],-0.05
same,Log2 (PYR/DMSO),[27],0.18
same,Log2 (PYR/DMSO),[28],0.16
same,Log2 (PYR/DMSO),[29],-0.03
same,Log2 (PYR/DMSO),[30],0.17
